The data set deals with Multidrug resistance-associated protein 1 (ABCC1) (Homo sapiens) (UniProt P33527). Kind of data set: In vitro for its inhibitory activity against MRP1-transfected HeLa-T5 cell line in the presence of doxorubicin.
Multidrug resistance-associated protein 1 (ABCC1) (Homo sapiens), sequence (P33527 whole entry, looked up): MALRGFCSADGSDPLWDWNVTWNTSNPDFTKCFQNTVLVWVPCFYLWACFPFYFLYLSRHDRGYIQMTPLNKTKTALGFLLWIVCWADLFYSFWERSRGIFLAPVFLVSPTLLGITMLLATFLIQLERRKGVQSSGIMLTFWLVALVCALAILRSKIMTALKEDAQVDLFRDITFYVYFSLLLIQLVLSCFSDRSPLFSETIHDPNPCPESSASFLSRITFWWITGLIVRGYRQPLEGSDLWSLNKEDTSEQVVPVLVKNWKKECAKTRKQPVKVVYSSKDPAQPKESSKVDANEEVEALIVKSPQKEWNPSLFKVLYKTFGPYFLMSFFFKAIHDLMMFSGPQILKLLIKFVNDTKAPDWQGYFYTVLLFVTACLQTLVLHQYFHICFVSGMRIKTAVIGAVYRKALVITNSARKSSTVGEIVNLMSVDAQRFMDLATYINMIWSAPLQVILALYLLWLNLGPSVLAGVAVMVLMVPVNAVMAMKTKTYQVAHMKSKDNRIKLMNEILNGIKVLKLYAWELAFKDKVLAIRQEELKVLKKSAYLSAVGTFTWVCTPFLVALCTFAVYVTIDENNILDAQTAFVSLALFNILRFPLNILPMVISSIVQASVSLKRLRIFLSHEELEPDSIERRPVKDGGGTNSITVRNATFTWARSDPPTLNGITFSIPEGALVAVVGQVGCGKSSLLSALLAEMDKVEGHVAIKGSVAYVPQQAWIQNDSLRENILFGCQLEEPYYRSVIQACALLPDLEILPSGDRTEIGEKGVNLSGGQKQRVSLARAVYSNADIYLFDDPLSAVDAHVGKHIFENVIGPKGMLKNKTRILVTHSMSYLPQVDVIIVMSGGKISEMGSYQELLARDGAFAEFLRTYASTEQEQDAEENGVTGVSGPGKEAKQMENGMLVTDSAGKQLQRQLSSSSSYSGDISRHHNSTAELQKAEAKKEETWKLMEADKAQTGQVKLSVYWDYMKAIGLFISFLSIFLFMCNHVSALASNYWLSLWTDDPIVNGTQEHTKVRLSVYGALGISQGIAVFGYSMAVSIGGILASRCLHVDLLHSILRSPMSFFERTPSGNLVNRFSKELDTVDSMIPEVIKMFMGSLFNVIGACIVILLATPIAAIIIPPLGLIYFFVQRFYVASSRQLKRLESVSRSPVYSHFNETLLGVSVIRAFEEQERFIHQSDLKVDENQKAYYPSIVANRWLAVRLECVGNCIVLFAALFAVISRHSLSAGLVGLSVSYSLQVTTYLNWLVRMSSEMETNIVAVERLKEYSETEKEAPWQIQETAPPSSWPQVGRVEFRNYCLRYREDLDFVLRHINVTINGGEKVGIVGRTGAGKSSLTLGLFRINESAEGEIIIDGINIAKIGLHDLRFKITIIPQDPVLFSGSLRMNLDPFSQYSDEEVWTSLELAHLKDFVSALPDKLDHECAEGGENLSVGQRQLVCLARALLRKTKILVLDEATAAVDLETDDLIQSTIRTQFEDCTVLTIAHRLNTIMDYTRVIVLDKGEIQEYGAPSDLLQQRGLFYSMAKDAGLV
Broadly, the EC50 is the concentration at which the effect is half-maximal. For the compound `COc1ccc(NC(=O)Cc2cccc(-n3c(=O)c4c(C)onc4c4c(Cl)cccc43)c2)cc1OC` [2-[3-(9-Chloro-3-methyl-4-oxo-4H-isoxazolo[4,3-c]quinolin-5-yl)-phenyl]-N-(3,4-dimethoxy-phenyl)-acetamide], the EC50 was determined as 4.1 µM.
The figure for `COc1cc(NC(=O)Cc2cccc(-n3c(=O)c4c(C)onc4c4c(Cl)cccc43)c2)cc(OC)c1` [2-[3-(9-Chloro-3-methyl-4-oxo-4H-isoxazolo[4,3-c]quinolin-5-yl)-phenyl]-N-(3,5-dimethoxy-phenyl)-acetamide] is 2.1 µM; for `COc1cccc(NC(=O)Cc2cccc(-n3c(=O)c4c(C)onc4c4c(Cl)cccc43)c2)c1` [2-[3-(9-Chloro-3-methyl-4-oxo-4H-isoxazolo[4,3-c]quinolin-5-yl)-phenyl]-N-(3-methoxy-phenyl)-acetamide] it is 1.8 µM.
As for `Cc1onc2c1c(=O)n(-c1cccc(CC(=O)Nc3ccc(F)cc3)c1)c1cccc(Cl)c21` [2-[3-(9-Chloro-3-methyl-4-oxo-4H-isoxazolo[4,3-c]quinolin-5-yl)-phenyl]-N-(4-fluoro-phenyl)-acetamide], the figure is 3.2 µM; as for `COc1ccc(NC(=O)Cc2cccc(-n3c(=O)c4c(C)onc4c4c(Cl)cccc43)c2)cc1` [2-[3-(9-Chloro-3-methyl-4-oxo-4H-isoxazolo[4,3-c]quinolin-5-yl)-phenyl]-N-(4-methoxy-phenyl)-acetamide], above 10 µM; as for `Cc1onc2c1c(=O)n(-c1cccc(CC(=O)Nc3ccc(S(N)(=O)=O)cc3)c1)c1cccc(Cl)c21` [2-[3-(9-Chloro-3-methyl-4-oxo-4H-isoxazolo[4,3-c]quinolin-5-yl)-phenyl]-N-(4-sulfamoyl-phenyl)-acetamide], above 10 µM.
As for `COc1cc(N(C)C(=O)Cc2cccc(-n3c(=O)c4c(C)onc4c4c(Cl)cccc43)c2)cc(OC)c1OC` [2-[3-(9-Chloro-3-methyl-4-oxo-4H-isoxazolo[4,3-c]quinolin-5-yl)-phenyl]-N-methyl-N-(3,4,5-trimethoxy-phenyl)-acetamide], the figure is 0.64 µM.
As for `COC(=O)c1ccc(NC(=O)Cc2cccc(-n3c(=O)c4c(C)onc4c4c(Cl)cccc43)c2)cc1` [4-{2-[3-(9-Chloro-3-methyl-4-oxo-4H-isoxazolo[4,3-c]quinolin-5-yl)-phenyl]-acetylamino}-benzoic acid methyl ester], the EC50 is above 10 µM.
As for `Cc1cc(C(=O)NCc2cccc(-n3c(=O)c4c(C)onc4c4c(Cl)cccc43)c2)no1` [5-Methyl-isoxazole-3-carboxylic acid 3-(9-chloro-3-methyl-4-oxo-4H-isoxazolo[4,3-c]quinolin-5-yl)-benzylamide], the figure is 7.9 µM.
The figure for `Cc1cc(C(=O)N[C@@H]2c3cc(-n4c(=O)c5c(C)onc5c5c(Cl)cccc54)ccc3C[C@H]2O)no1` [5-Methyl-isoxazole-3-carboxylic acid [(1R,2R)-6-(9-chloro-3-methyl-4-oxo-4H-isoxazolo[4,3-c]quinolin-5-yl)-2-hydroxy-indan-1-yl]-amide] is 10 µM; for `COc1cc(OCCc2cccc(-n3c(=O)c4c(C)onc4c4c(Cl)cccc43)c2)cc(OC)c1OC` [9-Chloro-3-methyl-5-{3-[2-(3,4,5-trimethoxy-phenoxy)-ethyl]-phenyl}-5H-isoxazolo[4,3-c]quinolin-4-one] it is 1.47 µM; for `COc1cc(CNCc2cccc(-n3c(=O)c4c(C)onc4c4c(Cl)cccc43)c2)cc(OC)c1OC` [9-Chloro-3-methyl-5-{3-[(3,4,5-trimethoxy-benzylamino)-methyl]-phenyl}-5H-isoxazolo[4,3-c]quinolin-4-one] it is 1.77 µM.
In the case of `Cc1onc2c1c(=O)n(-c1cccc(CC(=O)Nc3ccc(C(C)(C)C)cc3)c1)c1cccc(Cl)c21` [N-(4-tert-Butyl-phenyl)-2-[3-(9-chloro-3-methyl-4-oxo-4H-isoxazolo[4,3-c]quinolin-5-yl)-phenyl]-acetamide], the EC50 was above 10 µM.
Consider `Cc1onc2c1c(=O)n(-c1cccc(CC(=O)Nc3ccc4c(c3)OCO4)c1)c1cccc(Cl)c21` [N-Benzo[1,3]dioxol-5-yl-2-[3-(9-chloro-3-methyl-4-oxo-4H-isoxazolo[4,3-c]quinolin-5-yl)-phenyl]-acetamide], for which the EC50 was determined as 4 µM.

Values taken from BindingDB's records for doi:10.1016/s0960-894x(02)00051-3 (Eli Lilly, 2002).
